Results published in ChEMBL document CHEMBL4725232, “Synthesis and biological activity of new bisbenzofuran-imidazolium salts” (Bioorg Med Chem Lett, 2020).

These compounds were tested on HL-60 (assay: Antiproliferative activity against human HL60 cells by MTS assay).
Type: functional, cell-based

Cc1cc2c(cc1C)[n+](CC(=O)c1ccc(Br)cc1)cn2CC=C(c1cc2ccccc2o1)c1cc2ccccc2o1 and COc1ccc(C(=O)C[n+]2cn(CC=C(c3cc4ccccc4o3)c3cc4ccccc4o3)c3cc(C)c(C)cc32)cc1 are within 1.5-fold of each other in IC50: 6.27 µM for the first, 8 µM for the second.

Cc1cc2c(cc1C)[n+](CC(=O)c1ccc(-c3ccccc3)cc1)cn2CC=C(c1cc2ccccc2o1)c1cc2ccccc2o1 and O=C(C[n+]1cn(CC=C(c2cc3ccccc3o2)c2cc3ccccc3o2)c2ccccc21)c1ccc(-c2ccccc2)cc1 are within 1.5-fold of each other in IC50: 6.93 µM for the first, 5.33 µM for the second.

Going from O=C(C[n+]1ccn(CC=C(c2cc3ccccc3o2)c2cc3ccccc3o2)c1)c1ccc(Br)cc1 to COc1ccc(C(=O)C[n+]2ccn(CC=C(c3cc4ccccc4o3)c3cc4ccccc4o3)c2)cc1, the IC50 rises from 8.4 µM to greater than 20 µM.

First: O=C(C[n+]1cn(CC=C(c2cc3ccccc3o2)c2cc3ccccc3o2)c2ccccc21)c1ccc2ccccc2c1
Second: Cc1n(CC=C(c2cc3ccccc3o2)c2cc3ccccc3o2)c2ccccc2[n+]1CC(=O)c1ccccc1
The IC50 of the first is 1.5-fold higher: 1.63 µM for the first, 1.08 µM for the second.

O=C(C[n+]1ccn(CC=C(c2cc3ccccc3o2)c2cc3ccccc3o2)c1)c1ccccc1 and O=C(C[n+]1ccn(CC=C(c2cc3ccccc3o2)c2cc3ccccc3o2)c1)c1ccc(-c2ccccc2)cc1 are within 1.5-fold of each other in IC50: 6.95 µM for the first, 7.25 µM for the second.

C(Cn1ccnc1)=C(c1cc2ccccc2o1)c1cc2ccccc2o1 and Cc1nc2ccccc2n1CC=C(c1cc2ccccc2o1)c1cc2ccccc2o1 cannot be ordered by IC50: greater than 20 µM for the first, greater than 20 µM for the second.

The compounds below were run on SMMC-7721 (assay: Antiproliferative activity against human SMMC7721 by MTS assay).
Type: functional, cell-based

Cc1cc2c(cc1C)[n+](CC(=O)c1ccc(Br)cc1)cn2CC=C(c1cc2ccccc2o1)c1cc2ccccc2o1 and COc1ccc(C(=O)C[n+]2cn(CC=C(c3cc4ccccc4o3)c3cc4ccccc4o3)c3cc(C)c(C)cc32)cc1 are within 1.5-fold of each other in IC50: 7.81 µM for the first, 9.46 µM for the second.

Cc1cc2c(cc1C)[n+](CC(=O)c1ccc(-c3ccccc3)cc1)cn2CC=C(c1cc2ccccc2o1)c1cc2ccccc2o1 and O=C(C[n+]1cn(CC=C(c2cc3ccccc3o2)c2cc3ccccc3o2)c2ccccc21)c1ccc(-c2ccccc2)cc1 are within 1.5-fold of each other in IC50: 9.04 µM for the first, 6.69 µM for the second.

First: O=C(C[n+]1ccn(CC=C(c2cc3ccccc3o2)c2cc3ccccc3o2)c1)c1ccc(Br)cc1
Second: COc1ccc(C(=O)C[n+]2ccn(CC=C(c3cc4ccccc4o3)c3cc4ccccc4o3)c2)cc1
The IC50 of the first is lower: 7.86 µM for the first, greater than 20 µM for the second.

O=C(C[n+]1cn(CC=C(c2cc3ccccc3o2)c2cc3ccccc3o2)c2ccccc21)c1ccc2ccccc2c1 and Cc1n(CC=C(c2cc3ccccc3o2)c2cc3ccccc3o2)c2ccccc2[n+]1CC(=O)c1ccccc1 are within 1.5-fold of each other in IC50: 1.46 µM for the first, 1.34 µM for the second.

Compared with O=C(C[n+]1ccn(CC=C(c2cc3ccccc3o2)c2cc3ccccc3o2)c1)c1ccccc1, O=C(C[n+]1ccn(CC=C(c2cc3ccccc3o2)c2cc3ccccc3o2)c1)c1ccc(-c2ccccc2)cc1 is lower in IC50: greater than 20 µM for the first, 8.04 µM for the second. The second is the more potent here.

C(Cn1ccnc1)=C(c1cc2ccccc2o1)c1cc2ccccc2o1 and Cc1nc2ccccc2n1CC=C(c1cc2ccccc2o1)c1cc2ccccc2o1 cannot be ordered by IC50: greater than 20 µM for the first, greater than 20 µM for the second.

What follows are compounds tested on A549 (assay: Antiproliferative activity against human […] cells by MTS assay).
Type: functional, cell-based

Cc1cc2c(cc1C)[n+](CC(=O)c1ccc(Br)cc1)cn2CC=C(c1cc2ccccc2o1)c1cc2ccccc2o1 and COc1ccc(C(=O)C[n+]2cn(CC=C(c3cc4ccccc4o3)c3cc4ccccc4o3)c3cc(C)c(C)cc32)cc1 are within 1.5-fold of each other in IC50: 7.42 µM for the first, 8.25 µM for the second.

Cc1cc2c(cc1C)[n+](CC(=O)c1ccc(-c3ccccc3)cc1)cn2CC=C(c1cc2ccccc2o1)c1cc2ccccc2o1 and O=C(C[n+]1cn(CC=C(c2cc3ccccc3o2)c2cc3ccccc3o2)c2ccccc21)c1ccc(-c2ccccc2)cc1 are within 1.5-fold of each other in IC50: 7.68 µM for the first, 7.23 µM for the second.

First: O=C(C[n+]1ccn(CC=C(c2cc3ccccc3o2)c2cc3ccccc3o2)c1)c1ccc(Br)cc1
Second: COc1ccc(C(=O)C[n+]2ccn(CC=C(c3cc4ccccc4o3)c3cc4ccccc4o3)c2)cc1
The IC50 of the first is lower: 8.47 µM for the first, greater than 20 µM for the second.

Compared with O=C(C[n+]1cn(CC=C(c2cc3ccccc3o2)c2cc3ccccc3o2)c2ccccc21)c1ccc2ccccc2c1, Cc1n(CC=C(c2cc3ccccc3o2)c2cc3ccccc3o2)c2ccccc2[n+]1CC(=O)c1ccccc1 is 2.3-fold higher in IC50: 1.54 µM for the first, 3.5 µM for the second. The first is the more potent here.

First: O=C(C[n+]1ccn(CC=C(c2cc3ccccc3o2)c2cc3ccccc3o2)c1)c1ccccc1
Second: O=C(C[n+]1ccn(CC=C(c2cc3ccccc3o2)c2cc3ccccc3o2)c1)c1ccc(-c2ccccc2)cc1
The IC50 of the first is higher: greater than 20 µM for the first, 9.05 µM for the second.

C(Cn1ccnc1)=C(c1cc2ccccc2o1)c1cc2ccccc2o1 and Cc1nc2ccccc2n1CC=C(c1cc2ccccc2o1)c1cc2ccccc2o1 cannot be ordered by IC50: greater than 20 µM for the first, greater than 20 µM for the second.

What follows are compounds tested on MCF7 (assay: Antiproliferative activity against human MCF7 cells by MTS assay).
Type: functional, cell-based

Cc1cc2c(cc1C)[n+](CC(=O)c1ccc(Br)cc1)cn2CC=C(c1cc2ccccc2o1)c1cc2ccccc2o1 and COc1ccc(C(=O)C[n+]2cn(CC=C(c3cc4ccccc4o3)c3cc4ccccc4o3)c3cc(C)c(C)cc32)cc1 are within 1.5-fold of each other in IC50: 7.05 µM for the first, 7.97 µM for the second.

Compared with Cc1cc2c(cc1C)[n+](CC(=O)c1ccc(-c3ccccc3)cc1)cn2CC=C(c1cc2ccccc2o1)c1cc2ccccc2o1, O=C(C[n+]1cn(CC=C(c2cc3ccccc3o2)c2cc3ccccc3o2)c2ccccc21)c1ccc(-c2ccccc2)cc1 is 3.6-fold lower in IC50: 8.67 µM for the first, 2.42 µM for the second. The second is the more potent here.

First: O=C(C[n+]1ccn(CC=C(c2cc3ccccc3o2)c2cc3ccccc3o2)c1)c1ccc(Br)cc1
Second: COc1ccc(C(=O)C[n+]2ccn(CC=C(c3cc4ccccc4o3)c3cc4ccccc4o3)c2)cc1
The IC50 of the first is lower: 7.29 µM for the first, greater than 20 µM for the second.

First: O=C(C[n+]1cn(CC=C(c2cc3ccccc3o2)c2cc3ccccc3o2)c2ccccc21)c1ccc2ccccc2c1
Second: Cc1n(CC=C(c2cc3ccccc3o2)c2cc3ccccc3o2)c2ccccc2[n+]1CC(=O)c1ccccc1
The IC50 of the first is 1.8-fold higher: 1.44 µM for the first, 0.8 µM for the second.

O=C(C[n+]1ccn(CC=C(c2cc3ccccc3o2)c2cc3ccccc3o2)c1)c1ccccc1 and O=C(C[n+]1ccn(CC=C(c2cc3ccccc3o2)c2cc3ccccc3o2)c1)c1ccc(-c2ccccc2)cc1 are within 1.5-fold of each other in IC50: 11.2 µM for the first, 7.57 µM for the second.

C(Cn1ccnc1)=C(c1cc2ccccc2o1)c1cc2ccccc2o1 and Cc1nc2ccccc2n1CC=C(c1cc2ccccc2o1)c1cc2ccccc2o1 cannot be ordered by IC50: greater than 20 µM for the first, greater than 20 µM for the second.

What follows are compounds tested on SW480 (assay: Antiproliferative activity against human SW480 cells by MTS assay).
Type: functional, cell-based

Cc1cc2c(cc1C)[n+](CC(=O)c1ccc(Br)cc1)cn2CC=C(c1cc2ccccc2o1)c1cc2ccccc2o1 and COc1ccc(C(=O)C[n+]2cn(CC=C(c3cc4ccccc4o3)c3cc4ccccc4o3)c3cc(C)c(C)cc32)cc1 are within 1.5-fold of each other in IC50: 7.93 µM for the first, 5.8 µM for the second.

Cc1cc2c(cc1C)[n+](CC(=O)c1ccc(-c3ccccc3)cc1)cn2CC=C(c1cc2ccccc2o1)c1cc2ccccc2o1 and O=C(C[n+]1cn(CC=C(c2cc3ccccc3o2)c2cc3ccccc3o2)c2ccccc21)c1ccc(-c2ccccc2)cc1 are within 1.5-fold of each other in IC50: 6.42 µM for the first, 5.94 µM for the second.

Compared with O=C(C[n+]1ccn(CC=C(c2cc3ccccc3o2)c2cc3ccccc3o2)c1)c1ccc(Br)cc1, COc1ccc(C(=O)C[n+]2ccn(CC=C(c3cc4ccccc4o3)c3cc4ccccc4o3)c2)cc1 is higher in IC50: 6.17 µM for the first, greater than 20 µM for the second. The first is the more potent here.

Going from O=C(C[n+]1cn(CC=C(c2cc3ccccc3o2)c2cc3ccccc3o2)c2ccccc21)c1ccc2ccccc2c1 to Cc1n(CC=C(c2cc3ccccc3o2)c2cc3ccccc3o2)c2ccccc2[n+]1CC(=O)c1ccccc1, the IC50 falls from 1.77 µM to 0.79 µM (2.2-fold).

O=C(C[n+]1ccn(CC=C(c2cc3ccccc3o2)c2cc3ccccc3o2)c1)c1ccccc1 and O=C(C[n+]1ccn(CC=C(c2cc3ccccc3o2)c2cc3ccccc3o2)c1)c1ccc(-c2ccccc2)cc1 are within 1.5-fold of each other in IC50: 6.44 µM for the first, 7.2 µM for the second.

C(Cn1ccnc1)=C(c1cc2ccccc2o1)c1cc2ccccc2o1 and Cc1nc2ccccc2n1CC=C(c1cc2ccccc2o1)c1cc2ccccc2o1 cannot be ordered by IC50: greater than 20 µM for the first, greater than 20 µM for the second.
